Laboratory results as given in US20170146538A1, “PRL-3 AS A BIOMARKER FOR THE PROGNOSIS OF CANCER AND A TARGET FOR THERAPY” (Agency for Science, Technology and Research, priority 2014, published 2017).

What was measured:
Assay type in all cases: cell-based, human
[1] = system: TF1-PRL-3 cells; assay: MTS cell viability assay of TF1-PRL-3 cells treated with inhibitors; details: 72 hr; for reduction in cell number compared to DMSO-treated control cells: 5 μM
From the text: FIG. 4. PRL-3 specifically activates c-Jun through ERK and JNK signaling pathways. A. SEAP reporter assay results measuring AP-1 activity in TF-1 cells overexpressing GFP (TF1-GFP) or GFP-PRL-3 (TF1-PRL-3) (mean±SD, n=3). B. (a-b) PRL-3 specifically upregulates c-Jun but not c-Fos. (a) Western blot analysis of TF1-GFP, TF1-PRL-3 and TF1-ITD cells. (b) Western blot analysis after knock-down of endogenous PRL-3 in TF1-ITD cells. GAPDH, loading control. NS, control non-silencing siRNA. C. (a-d) PRL-3-mediated upregulation of c-Jun is dependent on ERK and JNK pathways. (a) Western blot analysis after knock-down of endogenous PRL-3 in TF1-ITD and MOLM-14 cells. (b) Western blot analysis of TF1-GFP and TF1-PRL-3 cells. (c-d) Western blot analysis after knock-down of ERK1/2 or JNK in TF1-PRL-3 cells. GAPDH, loading control. NS, control non-silencing siRNA. D. […] Error bars represent the mean±SD from three independent experiments. AML Cells (1×10^4) were seeded into each well of 96-well tissue culture plates in 100 μl growth media and viable cells were measured after seeding with different inhibitors for 72 hr using the CellTiter^96 Aqueous cell proliferation assay kit. (Promega). Briefly, an aliquot of 20 μl MTS mixture was added at the indicated time of assay and reactions were performed at 37° C. for 2 hours. And absorbance was read at 490 nm wavelength using TECAN microplate reader. After establishment of linear relationship between cell numbers and absorbance from each cell line, acquired absorbance converted to cell number.

[2] = system: TF1-ITD cells; assay: Western blot analysis of TF1-ITD cells upon FLT3 or Src inhibition; details: various concentrations, 24 h, dose-dependent
Procedure: (§1) FIG. 2. […] Whole cell lysates were subjected to western blot analysis with indicated antibodies. GAPDH, loading control. A. (a-d) Western blot analysis of AML cells upon FLT3 inhibition. […] C. (a-b) Western blot analysis of AML cells upon Src inhibition.
(§2) Cells were lysed using modified RIPA buffer (50 mM Tris-HCl, 150 mM NaCl, 1% NP-40, pH 8.0, 1×protease inhibitor cocktail) and lysates were subjected to western blotting with indicated primary antibodies. Proteins recognized by the antibodies were detected using the Chemiluminescent Detection Kit (Pierce, Thermo Scientific, Rockford, Ill.).
(§3) Since STAT5 was known to be a critical downstream target of FLT3-ITD (Mizuki et al, 2000), we tested STAT5 expression level after treatment with FLT3-specific inhibitors; PKC412 or CEP-701 (Odgerel et al, 2007; Smith et al, 2004). […] We next examined whether FLT3-ITD-induced PRL-3 expression might be mediated by JAK or Src, two distinct upstream activators of STAT5 (Robinson et al, 2005; Spiekermann et al, 2003). […] To investigate the role of Src-mediated phosphorylation of STAT5 in FLT3-ITD positive AML cells. AML cells were treated with two distinct Src kinase inhibitors, SU6656 and PP2 (Blake et al, 2000; Nam et al, 2002).

[3] = system: MOLM-14 cells; assay: Western blot analysis of MOLM-14 cells upon FLT3 inhibition; details: various concentrations, 24 h, dose-dependent
Procedure: as §1, §2, §3

Row | SMILES | reduction in cell number compared to DMSO-treated control cells [1] | PRL-3 protein levels [2] | phosphorylation of STAT5 [2] | phosphorylation of Src [2] | further results
1 | N#CC(=C(/N)Sc1ccccc1N)/C(C#N)=C(\N)Sc1ccccc1N [U0126] | around 50% | – | – | – | –
2 | Oc1c2ccccc2c2c3c(cccc13)N=N2 [SP600125] | around 50% | – | – | – | –
3 | CO[C@@H]1[C@H](N(C)C(=O)c2ccccc2)C[C@H]2O[C@]1(C)n1c3ccccc3c3c4c(c5c6ccccc6n2c5c31)C(=O)NC4 [PKC412] | – | inhibited | inhibited | inhibited | phosphorylation of FLT3 [2]: inhibited; PRL-3 protein levels [3]: inhibited; phosphorylation of FLT3 [3]: inhibited; phosphorylation of STAT5 [3]: inhibited; phosphorylation of Src [3]: inhibited
4 | CN(C)S(=O)(=O)c1ccc2c(c1)/C(=C/c1cc3c([nH]1)CCCC3)C(=O)N2 [SU6656] | – | inhibited | inhibited | inhibited | –
5 | CC(C)(C)n1nc(-c2ccc(Cl)cc2)c2c(N)ncnc21 [PP2] | – | inhibited | inhibited | inhibited | –
6 | COc1cc(/C=C/C(=O)CC(=O)/C=C/c2ccc(O)c(OC)c2)ccc1O [curcumin] | – | – | – | – | cell number, % of DMSO-treated cells ([1]; 15 μM): around 50%
